Source: PubChem BioAssay (NCI)
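A five-concentration, 48-hour dose response in 96-well plates underlies each endpoint, interpolated linearly between surrounding concentrations. GI50 is the concentration that inhibits growth by half. Definition used: TGI = concentration required for complete inhibition of growth.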

How the values were obtained:
Assay in all cases: NCI anticancer screen, dose series, 48 h; in the data active means GI50 below about 0.43 µM; inactive means the rest
ACHN renal = test system: ACHN renal
K-562 leukemia = test system: K-562 leukemia
COLO 205 colon = test system: COLO 205 colon
SW-620 colon = test system: SW-620 colon
HT29 colon = test system: HT29 colon
NCI-H460 lung = test system: NCI-H460 lung
SF-295 CNS = test system: SF-295 CNS
PC-3 prostate = test system: PC-3 prostate
RPMI-8226 leukemia = test system: RPMI-8226 leukemia
M14 melanoma = test system: M14 melanoma
IGROV1 ovarian = test system: IGROV1 ovarian
NCI-H226 lung = test system: NCI-H226 lung
CCRF-CEM leukemia = test system: CCRF-CEM leukemia
HOP-62 NSCLC = test system: HOP-62 NSCLC
OVCAR-8 ovarian = test system: OVCAR-8 ovarian
SN12C renal = test system: SN12C renal
OVCAR-5 ovarian = test system: OVCAR-5 ovarian
SF-539 CNS = test system: SF-539 CNS
A498 renal = test system: A498 renal
OVCAR-3 ovarian = test system: OVCAR-3 ovarian
RXF 393 renal = test system: RXF 393 renal
LOX IMVI melanoma = test system: LOX IMVI melanoma
HL-60(TB) leukemia = test system: HL-60(TB) leukemia
SR leukemia = test system: SR leukemia
OVCAR-4 ovarian = test system: OVCAR-4 ovarian
T-47D breast = test system: T-47D breast
MDA-MB-435 = test system: MDA-MB-435
SF-268 CNS = test system: SF-268 CNS
NCI/ADR-RES ovarian = test system: NCI/ADR-RES ovarian
SNB-75 CNS = test system: SNB-75 CNS
NCI-H23 lung = test system: NCI-H23 lung
U251 CNS = test system: U251 CNS
UACC-62 melanoma = test system: UACC-62 melanoma
MDA-MB-231 breast = test system: MDA-MB-231 breast
KM12 colon = test system: KM12 colon
HCT-15 colon = test system: HCT-15 colon
MDA-N = test system: MDA-N
SK-OV-3 ovarian = test system: SK-OV-3 ovarian
SK-MEL-28 melanoma = test system: SK-MEL-28 melanoma
MCF7 breast = test system: MCF7 breast
CAKI-1 renal = test system: CAKI-1 renal
HCC-2998 colon = test system: HCC-2998 colon
EKVX NSCLC = test system: EKVX NSCLC
BT-549 breast = test system: BT-549 breast
A549 NSCLC = test system: A549 NSCLC
SNB-19 CNS = test system: SNB-19 CNS
SK-MEL-5 melanoma = test system: SK-MEL-5 melanoma
786-0 renal = test system: 786-0 renal
TK-10 renal = test system: TK-10 renal
DU-145 prostate = test system: DU-145 prostate
HCT-116 colon = test system: HCT-116 colon
SK-MEL-2 melanoma = test system: SK-MEL-2 melanoma
UACC-257 melanoma = test system: UACC-257 melanoma
HOP-92 NSCLC = test system: HOP-92 NSCLC
UO-31 renal = test system: UO-31 renal
MALME-3M melanoma = test system: MALME-3M melanoma
MOLT-4 leukemia = test system: MOLT-4 leukemia
HS 578T breast = test system: HS 578T breast
NCI-H522 lung = test system: NCI-H522 lung

c1ccc2c[n+](CCCC[n+]3ccc4ccccc4c3)ccc2c1
> 100000 nM: TGI (ACHN renal) | TGI (K-562 leukemia) | TGI (COLO 205 colon) | TGI (SW-620 colon) | TGI (HT29 colon) | TGI (NCI-H460 lung) | TGI (SF-295 CNS) | TGI (PC-3 prostate) | TGI (RPMI-8226 leukemia) | TGI (M14 melanoma) | TGI (IGROV1 ovarian) | TGI (NCI-H226 lung) | TGI (CCRF-CEM leukemia) | TGI (HOP-62 NSCLC) | TGI (OVCAR-8 ovarian) | TGI (SN12C renal) | TGI (OVCAR-5 ovarian) | TGI (SF-539 CNS) | TGI (A498 renal) | TGI (OVCAR-3 ovarian) | TGI (RXF 393 renal) | TGI (LOX IMVI melanoma) | TGI (HL-60(TB) leukemia) | TGI (SR leukemia) | TGI (OVCAR-4 ovarian) | TGI (T-47D breast) | TGI (MDA-MB-435) | TGI (SF-268 CNS) | TGI (NCI/ADR-RES ovarian) | TGI (SNB-75 CNS) | TGI (NCI-H23 lung) | TGI (U251 CNS) | TGI (UACC-62 melanoma) | TGI (MDA-MB-231 breast) | TGI (KM12 colon) | TGI (HCT-15 colon) | TGI (MDA-N) | TGI (SK-OV-3 ovarian) | TGI (SK-MEL-28 melanoma) | TGI (MCF7 breast) | TGI (CAKI-1 renal) | TGI (HCC-2998 colon) | TGI (EKVX NSCLC) | TGI (BT-549 breast) | TGI (A549 NSCLC) | TGI (SNB-19 CNS) | TGI (SK-MEL-5 melanoma) | TGI (786-0 renal) | TGI (TK-10 renal) | TGI (DU-145 prostate) | TGI (HCT-116 colon) | TGI (SK-MEL-2 melanoma) | TGI (UACC-257 melanoma)

CN1CCN(Cc2ccc(NC(=O)c3[nH]ncc3Nc3ncnc4[nH]ccc34)cc2)CC1
active: GI50 (ACHN renal) 322 nM | GI50 (K-562 leukemia) 265 nM | GI50 (COLO 205 colon) 193 nM | GI50 (SW-620 colon) 381 nM | GI50 (NCI-H460 lung) 328 nM | GI50 (SF-295 CNS) 211 nM | GI50 (PC-3 prostate) 372 nM | GI50 (MOLT-4 leukemia) 142 nM | GI50 (NCI-H226 lung) 205 nM | GI50 (CCRF-CEM leukemia) 254 nM | GI50 (HOP-62 NSCLC) 348 nM | GI50 (OVCAR-8 ovarian) 387 nM | GI50 (SN12C renal) 333 nM | GI50 (SF-539 CNS) 133 nM | GI50 (A498 renal) 149 nM | GI50 (OVCAR-3 ovarian) 255 nM | GI50 (RXF 393 renal) 199 nM | GI50 (LOX IMVI melanoma) 201 nM | GI50 (HL-60(TB) leukemia) 270 nM | GI50 (SR leukemia) 229 nM | GI50 (OVCAR-4 ovarian) 215 nM | GI50 (T-47D breast) 365 nM | GI50 (HS 578T breast) 197 nM | GI50 (MDA-MB-435) 298 nM | GI50 (SF-268 CNS) 374 nM | GI50 (SNB-75 CNS) 39.3 nM | GI50 (NCI-H23 lung) 295 nM | GI50 (U251 CNS) 251 nM | GI50 (UACC-62 melanoma) 411 nM | GI50 (MDA-MB-231 breast) 371 nM | GI50 (KM12 colon) 347 nM | GI50 (SK-MEL-28 melanoma) 411 nM | GI50 (MCF7 breast) 118 nM | GI50 (HCC-2998 colon) 367 nM | GI50 (EKVX NSCLC) 368 nM | GI50 (BT-549 breast) 297 nM | GI50 (SNB-19 CNS) 373 nM | GI50 (SK-MEL-5 melanoma) 250 nM | GI50 (786-0 renal) 301 nM | GI50 (NCI-H522 lung) 283 nM | GI50 (DU-145 prostate) 311 nM | GI50 (HCT-116 colon) 214 nM | GI50 (SK-MEL-2 melanoma) 325 nM
1820 nM: TGI (UACC-62 melanoma)
5010 nM: TGI (SF-295 CNS)
759 nM: TGI (LOX IMVI melanoma)
3440 nM: TGI (HOP-62 NSCLC)
406 nM: TGI (A498 renal)
8660 nM: TGI (M14 melanoma)
464 nM: TGI (RXF 393 renal)
4670 nM: TGI (NCI-H460 lung)
626 nM: TGI (HL-60(TB) leukemia)
427 nM: TGI (COLO 205 colon)
11600 nM: TGI (SW-620 colon)
62700 nM: TGI (HCT-15 colon)
29100 nM: TGI (MCF7 breast)
741 nM: TGI (HOP-92 NSCLC)
1870 nM: TGI (NCI-H226 lung)
inactive: GI50 (HOP-92 NSCLC) 431 nM | GI50 (UO-31 renal) 820 nM | GI50 (MALME-3M melanoma) 472 nM | GI50 (RPMI-8226 leukemia) 2430 nM | GI50 (M14 melanoma) 473 nM | GI50 (IGROV1 ovarian) 436 nM | GI50 (OVCAR-5 ovarian) 456 nM | GI50 (NCI/ADR-RES ovarian) 7160 nM | GI50 (HCT-15 colon) 1010 nM | GI50 (CAKI-1 renal) 1830 nM | GI50 (A549 NSCLC) 742 nM | GI50 (TK-10 renal) 562 nM | GI50 (UACC-257 melanoma) 531 nM
> 100000 nM: TGI (K-562 leukemia) | TGI (PC-3 prostate) | TGI (SN12C renal) | TGI (NCI/ADR-RES ovarian) | TGI (DU-145 prostate)
797 nM: TGI (OVCAR-3 ovarian)
2000 nM: TGI (786-0 renal)
3090 nM: TGI (OVCAR-8 ovarian)
680 nM: TGI (OVCAR-4 ovarian)
941 nM: TGI (MDA-MB-231 breast)
959 nM: TGI (MALME-3M melanoma)
1070 nM: TGI (BT-549 breast)
17400 nM: TGI (OVCAR-5 ovarian)
598 nM: TGI (MOLT-4 leukemia)
1080 nM: TGI (NCI-H23 lung)
921 nM: TGI (SK-MEL-2 melanoma)
8190 nM: TGI (CAKI-1 renal)
778 nM: TGI (SK-MEL-5 melanoma)
2370 nM: TGI (TK-10 renal)
429 nM: TGI (SF-539 CNS)
5680 nM: TGI (CCRF-CEM leukemia)
4570 nM: TGI (UO-31 renal)
10900 nM: TGI (KM12 colon)
1710 nM: TGI (MDA-MB-435)
10700 nM: TGI (IGROV1 ovarian) | TGI (U251 CNS)
10800 nM: TGI (A549 NSCLC)
1630 nM: TGI (NCI-H522 lung)
980 nM: TGI (HS 578T breast)
708 nM: TGI (SR leukemia)
10000 nM: TGI (ACHN renal)
17800 nM: TGI (UACC-257 melanoma)
371 nM: TGI (SNB-75 CNS)
1420 nM: TGI (SF-268 CNS) | TGI (HCC-2998 colon)
2640 nM: TGI (EKVX NSCLC)
13100 nM: TGI (HCT-116 colon)
18700 nM: TGI (T-47D breast)
4240 nM: TGI (SK-MEL-28 melanoma)
6590 nM: TGI (RPMI-8226 leukemia) | TGI (SNB-19 CNS)
